Reference: paper PMC12463058, “SF3A3 Drives Tumorigenesis in Endometrial Cancer by Enhancing c‐FOS Expression and Represents a Potential Therapeutic Target” (Advanced Science, 2025)

Biological target: T1, splicing factor 3A subunit 3 (SF3A3) (Homo sapiens, UniProt Q12874)
T1 sequence (Q12874 1-501): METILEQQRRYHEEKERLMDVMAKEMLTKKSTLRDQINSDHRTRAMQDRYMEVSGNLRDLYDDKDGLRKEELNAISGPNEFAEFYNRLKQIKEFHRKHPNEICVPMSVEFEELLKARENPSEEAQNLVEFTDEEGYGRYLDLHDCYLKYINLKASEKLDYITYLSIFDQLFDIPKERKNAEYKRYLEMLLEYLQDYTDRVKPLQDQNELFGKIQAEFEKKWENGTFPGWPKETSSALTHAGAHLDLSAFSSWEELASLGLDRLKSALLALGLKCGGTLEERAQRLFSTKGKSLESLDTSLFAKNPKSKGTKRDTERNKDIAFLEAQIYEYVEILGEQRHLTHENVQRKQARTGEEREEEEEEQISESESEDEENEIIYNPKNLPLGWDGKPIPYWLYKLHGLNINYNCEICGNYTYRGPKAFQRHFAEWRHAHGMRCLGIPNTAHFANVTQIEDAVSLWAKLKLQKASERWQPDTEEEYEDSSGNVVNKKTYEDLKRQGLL
Assay: SPR (Biacore 8K, immobilized purified human SF3A3, steady-state affinity); supported by pulldown mass spectrometry
Type: binding

## S=C=NCCc1ccccc1 [PEITC]
  Kd: 10.1 µM
